Test results as given in patent US5604226A, “Pyridazinone derivatives, processes for production thereof and use thereof” (Nihon Nohyaku Co., Ltd., priority 1993, dated 1997).

Key:
[1] = tested on: Platelet aggregation (ADP, rabbit platelet rich plasma); assay: Platelet aggregation inhibition in rabbit PRP, ADP-induced, Born's turbidimetry (Experiment 1); assay type: cell-based; details: Oryctolagus cuniculus, 0.05 h, ADP 2 to 4 μM, 3 min incubation, read-out: Aggregation Inhibition Rate; for inhibition at 0.1 µg/mL: 10^-7 g/ml; for inhibition at 1 µg/mL: 10^-6 g/ml
Description: Blood was collected from the ear vein of rabbit, together with 1/10 volume sodium citrate. Centrifugation at 1,200 rpm for 10 minutes gave the supernatant which was made platelet rich plasma (PRP). The blood was further centrifuged at 3,000 rpm for 10 minutes to give platelet poor plasma (PPP). The platelet count of PRP was adjusted to 300,000/μl with PPP, which was provided for the test. Platelet aggregation was determined with aggregometer (HEMATRACERVI, Niko Bioscience Co.) based on Born's turbidimetry. That is, 200 μl of PRP was charged in a cell and 1 μl of a drug solution dissolved in dimethylsulfoxide was added thereto. After incubation for 3 minutes, ADP was added in a concentration of 2 to 4 μM to cause aggregation. Change in transmittance in the cell was then monitored. The results are shown in Table 2, in terms of aggregation inhibition rate which was determined by comparing a transmittance of control with that obtained at the maximum aggregation on an aggregation curve when the transmittance of PRP was made 0% and the transmittance of PPP was made 100%.

[2] = tested on: thrombocytopenia in mice (collagen-induced, platelet count); assay: Activity of preventing thrombocytopenia in mice, collagen i.v. (Experiment 3); assay type: in vivo, male ddY mice; details: Mus musculus, 3.0 mg/kg oral, 1 hour before collagen 0.5 mg/kg i.v., * p = 5%, ** p = 1%, *** p = 0.1%, read-out: Average Inhibition Rate (platelet count; normal mouse 100, control mouse 0)
Description: Activity of preventing thrombocytopenia in mice:
Collagen (Holm Co.) diluted with physiological saline was intravenously given through the vein to male ddY mice of 6 weeks old, weighing 28-31 g, which had been fasted for 4-5 hours, in a dose of 0.5 mg/kg. Five minutes after, blood was collected from the lower thigh vein under pentobarbital anesthesia through a plastic syringe treated with heparin containing 3.8% sodium citrate. The drug was orally given an hour before the collagen administration. The platelet count was measured with Sysmex E-4000. The inhibition activity is shown in terms of percentage of the platelet count when the platelet count of normal mouse was made 100 and the platelet count of control mouse was made 0.

COc1ccc(CNc2c(OCCOc3ccccc3)n[nH]c(=O)c2Br)cc1OC [Comparative Compound B, reference compound]
inhibition at 0.1 µg/mL [1]: 79%

COc1ccc(CNc2c(OCCSc3ccc(C#N)cc3)n[nH]c(=O)c2Br)cc1OC [Compound 37]
inhibition at 1 µg/mL [1]: 100% | inhibition at 0.1 µg/mL [1]: 100% | inhibition in vivo at 3 mg/kg [2]: 35.4%

COc1ccc(CNc2c(OCCS(=O)(=O)c3ccc(C)cc3C)n[nH]c(=O)c2Br)cc1OC [Compound 33, 4-bromo-5-(3,4-dimethoxyphenylmethyl-amino)-6-[2-(2,4-dimethylphenylsulfonyl)ethyloxy]-3(2H)-pyridazinone]
inhibition at 0.1 µg/mL [1]: 100%

Cc1ccc(SCCOc2n[nH]c(=O)c(Cl)c2NCc2cccnc2)cc1 [Compound 27]
inhibition at 1 µg/mL [1]: 100% | inhibition at 0.1 µg/mL [1]: 80%

COc1ccc(SCCOc2n[nH]c(=O)c(Cl)c2NCc2cccnc2)cc1 [Compound 34]
inhibition at 1 µg/mL [1]: 100% | inhibition at 0.1 µg/mL [1]: 64%

COc1ccc(CNc2c(OCC[S+]([O-])c3ccc(C)cc3C)n[nH]c(=O)c2Br)cc1OC (centres unmarked) [Compound 32, 4-bromo-5-(3,4-dimethoxyphenylmethyl-amino)-6-[2-(2,4-dimethylphenylsulfinyl)ethyloxy]-3(2H)pyridazinone]
inhibition at 0.1 µg/mL [1]: 100%

O=c1[nH]nc(OCCCc2ccccc2)c(NCc2cccnc2)c1Br [Comparative Compound A, reference compound]
inhibition at 1 µg/mL [1]: 100% | inhibition at 0.1 µg/mL [1]: 84%

COc1ccc(CNc2c(OCCSc3ccc(Cl)cc3)n[nH]c(=O)c2Cl)cc1OC [Compound 24]
inhibition at 1 µg/mL [1]: 100% | inhibition at 0.1 µg/mL [1]: 100%

COc1ccc(CNc2c(OCCCS(=O)(=O)c3ccccc3)n[nH]c(=O)c2Br)cc1OC [Compound 11]
inhibition at 0.1 µg/mL [1]: 71%

COc1ccc(CNc2c(OCCSc3cccc(Cl)c3)n[nH]c(=O)c2Br)cc1OC [Compound 20]
inhibition at 1 µg/mL [1]: 100% | inhibition at 0.1 µg/mL [1]: 90%

COc1ccc(S(=O)(=O)CCOc2n[nH]c(=O)c(Cl)c2NCc2ccc(OC)c(OC)c2)cc1 [Compound 36]
inhibition at 1 µg/mL [1]: 100% | inhibition at 0.1 µg/mL [1]: 83%

COc1ccc(CNc2c(OCC[S+]([O-])c3ccc(C)cc3)n[nH]c(=O)c2Br)cc1OC (centres unmarked) [Compound 30, 4-bromo-5-(3,4-dimethoxyphenylmethylamino)-6-[2-(p-tolylsulfinyl)ethyloxy]-3(2H)-pyridazinone]
inhibition at 1 µg/mL [1]: 100% | inhibition at 0.1 µg/mL [1]: 100%

O=c1[nH]nc(OCCSc2ccccc2)c(NCc2cccnc2)c1Cl [Compound 1]
inhibition at 1 µg/mL [1]: 100% | inhibition at 0.1 µg/mL [1]: 37%

O=c1[nH]nc(OCCCSc2ccccc2)c(NCc2cccnc2)c1Cl [Compound 2, 4-chloro-6-[3-(phenylthio)propyloxy]-5-(3-picolylamino)-3(2H)-pyridazinone]
inhibition at 1 µg/mL [1]: 100% | inhibition at 0.1 µg/mL [1]: 27%

COc1ccc(SCCOc2n[nH]c(=O)c(Cl)c2NCc2ccc(OC)c(OC)c2)cc1 [Compound 35]
inhibition at 1 µg/mL [1]: 100% | inhibition at 0.1 µg/mL [1]: 83%

COc1ccc(CNc2c(OCCSc3ccccc3)n[nH]c(=O)c2Cl)cc1OC [Compound 4]
inhibition at 1 µg/mL [1]: 100% | inhibition at 0.1 µg/mL [1]: 100%

COc1ccc(CNc2c(OCC[S+]([O-])c3ccccc3)nn(CN3CCOCC3)c(=O)c2Br)cc1OC (centres unmarked) [Compound 13]
inhibition at 0.1 µg/mL [1]: 100%

COc1ccc(CNc2c(OCC[S+]([O-])c3ccc([N+](=O)[O-])cc3)n[nH]c(=O)c2Br)cc1OC (centres unmarked) [Compound 40]
inhibition in vivo at 3 mg/kg [2]: 40.8%

COc1ccc(CNc2c(OCCS(=O)(=O)c3ccccc3)n[nH]c(=O)c2Br)cc1OC [Compound 10, 4-bromo-5-(3,4-dimethoxyphenylmethylamino)-6-[2-(phenylsulfonyl)ethyloxy]-3(2H)-pyridazinone]
inhibition at 0.1 µg/mL [1]: 100%

COc1ccc(CNc2c(OCCSc3ccc(C)cc3C)n[nH]c(=O)c2Br)cc1OC [Compound 31, 4-bromo-5-(3,4-dimethoxyphenylmethylamino)-6-[2-(2,4-dimethylphenylthio)ethyloxy]-3(2H)-pyridazinone]
inhibition at 0.1 µg/mL [1]: 100%

O=c1[nH]nc(OCCSc2ccc(Cl)cc2)c(NCc2cccnc2)c1Cl [Compound 23]
inhibition at 1 µg/mL [1]: 100% | inhibition at 0.1 µg/mL [1]: 100%

COc1ccc(CNc2c(OCC[S+]([O-])c3ccc(C#N)cc3)n[nH]c(=O)c2Br)cc1OC (centres unmarked) [Compound 38]
inhibition at 0.1 µg/mL [1]: 100% | inhibition in vivo at 3 mg/kg [2]: 21.8%

COc1ccc(CNc2c(OCCSc3ccc(C)cc3)n[nH]c(=O)c2Cl)cc1OC [Compound 28]
inhibition at 1 µg/mL [1]: 100% | inhibition at 0.1 µg/mL [1]: 100%

CCN(CC)C(=O)c1ccc(SCCOc2n[nH]c(=O)c(Br)c2NCc2ccc(OC)c(OC)c2)cc1 [Compound 41]
inhibition at 0.1 µg/mL [1]: 100%

COc1ccc(CNc2c(OCCSc3ccc(F)cc3)n[nH]c(=O)c2Br)cc1OC [Compound 14, 4-bromo-5-(3,4-dimethoxyphenylmethylamino)-6-[2-(4fluorophenylthio)ethyloxy]-3(2H)-pyridazinone]
inhibition at 0.1 µg/mL [1]: 100% | inhibition in vivo at 3 mg/kg [2]: 23.3%

COc1ccc(CNc2c(OCC[S+]([O-])c3ccc(F)cc3)n[nH]c(=O)c2Br)cc1OC (centres unmarked) [Compound 15, 4-bromo-5-(3,4-dimethoxyphenylmethyl-amino)-6-[2-(4-fluorophenylsulfinyl)ethyloxy]-3(2H)-pyridazinone]
inhibition at 0.1 µg/mL [1]: 100% | inhibition in vivo at 3 mg/kg [2]: 52.4%

COc1ccc(CNc2c(OCCS(=O)(=O)c3ccc(F)cc3)n[nH]c(=O)c2Br)cc1OC [Compound 16, 4-bromo-6-[2-(4-fluorophenylsulfonyl)ethyloxy]-5-(3,4-dimethoxyphenylmethylamino)-3(2H)-pyridazinone]
inhibition at 0.1 µg/mL [1]: 100% | inhibition in vivo at 3 mg/kg [2]: 35.7%

COc1ccc(CNc2c(OCCSc3ccc(F)cc3)nn(CN3CCN(C)CC3)c(=O)c2Br)cc1OC [Compound 17, 4-bromo-5-(3,4-dimethoxyphenylmethylamino)-6-[2-(4-fluorophenylthio)ethyloxy]-2-(4-methylpiperazinlylmethyl)-3(2H)-pyridazinone]
inhibition at 0.1 µg/mL [1]: 100%

COc1ccc(CNc2c(OCCSc3ccccc3)nn(CN3CCOCC3)c(=O)c2Br)cc1OC [Compound 12]
inhibition at 0.1 µg/mL [1]: 100% | inhibition in vivo at 3 mg/kg [2]: 43%

COc1ccc(CNc2c(OCCSc3ccc([N+](=O)[O-])cc3)n[nH]c(=O)c2Br)cc1OC [Compound 39, 4-bromo-5-(3,4-dimethoxyphenylmethylamino)-6-[2-(4-nitrophenylthio)ethyloxy]-3(2H)-pyridazinone]
inhibition at 1 µg/mL [1]: 100% | inhibition at 0.1 µg/mL [1]: 93% | inhibition in vivo at 3 mg/kg [2]: 30.4%

COc1ccc(CNc2c(OCCSc3ccccc3)n[nH]c(=O)c2Br)cc1OC [Compound 6, 4-bromo-5-(3,4-dimethoxyphenylmethyl-amino)-6-[2-(phenylthio)ethyloxy]-3(2H)-pyridazinone]
inhibition at 1 µg/mL [1]: 100% | inhibition at 0.1 µg/mL [1]: 100% | inhibition in vivo at 3 mg/kg [2]: 33%

COc1ccc(CNc2c(OCC[S+]([O-])c3ccc(C)cc3)n[nH]c(=O)c2Cl)cc1OC (centres unmarked) [Compound 29]
inhibition at 1 µg/mL [1]: 100% | inhibition at 0.1 µg/mL [1]: 100%

COc1ccc(CNc2c(OCCCSc3ccccc3)n[nH]c(=O)c2Br)cc1OC [Compound 7]
inhibition at 1 µg/mL [1]: 100% | inhibition at 0.1 µg/mL [1]: 74%
